Source: patent US11160887B2, “Compositions for use in diagnosing and treating melanoma, including metastatic melanoma and methods related to same” (UNM RAINFOREST INNOVATIONS, priority 2008, dated 2021)

Assays:
[1] = system: melanoma metastases smaller than 5 mm; conditions: literature (5); cited from earlier work
[2] = system: B16/F10 pulmonary melanoma metastases; format: in vivo, mouse
Procedure: Metastatic Melanoma Imaging: A pulmonary metastatic melanoma-bearing mouse was used for [^18F]FDG PET imaging 16 days after the cell injection and used for ^111In-DOTA-GlyGlu-CycMSH SPECT/CT imaging on next day (a time interval of 26 h) to compare the difference in detection efficiency between [^18F]FDG and ^111In-DOTA-GlyGlu-CycMSH. The mouse was injected with 35.15 MBq of commercial [^18F]FDG (Biotech, N. Mex.) via the tail vein. At 1 h post-injection, the mouse was anesthetized with 1.5% isoflurane and placed in the prone position near the center of the field of view of small animal PET (LabPET™) (Gamma Medica-Ideas, Sherbrooke, Quebec). A 30-min static scan was acquired, and the image was reconstructed by maximum likelihood estimation method (MLEM). The mouse was returned to the cage for recovery after the ^18F-FDG PET imaging study was completed. The same mouse was injected with 24.05 MBq of ^111In-DOTA-GlyGlu-CycMSH via the tail vein 24 h after the ^18F-FDG PET imaging study. The mouse was anesthetized with 1.5% isoflurane for small animal SPECT/CT (Nano-SPECT/CT®, Bioscan) imaging 2 h post-injection. The 6-min CT imaging was immediately followed by the focused SPECT imaging of lung. The SPECT scans of 24 projections were acquired and total acquisition time was 45 min. After the focused lung imaging, the mouse was sacrificed with CO2 inhalation for whole-body SPECT/CT imaging. The 9-min CT imaging was immediately followed by the SPECT imaging of whole-body. Reconstructed data from SPECT and CT were visualized and co-registered using InVivoScope (Bioscan, Washington D.C.). Necropsy analysis of the mouse was performed to confirm the pulmonary metastatic melanoma lesions after the SPECT/CT imaging studies were completed. To monitor the development of pulmonary melanoma metstases with ^111In-DOTA-GlyGlu-CycMSH, a pulmonary metastatic melanoma-bearing mouse was injected with 10.36 MBq of ^111In-DOTA-GlyGlu-CycMSH through the tail vein for small animal SPECT/CT imaging 20 days after the cell injection. […]

accumulation of activity in normal organs in whole-body image ([2]; mouse, in vivo): much higher normal organ accumulation
Substance: 2-[^18F]fluoro-2-deoxy-D-glucose [[^18F]FDG]
melanoma metastases smaller than 5 mm detected by PET imaging [1]: 23% | detection of pulmonary metastatic melanoma lesions by imaging ([2]; SPECT/CT 2 h post-injection (111In peptide) or PET 1 h post-injection ([18F]FDG), same mouse, 16-17 days post the cell injection): failed in identifying the pulmonary melanoma metastases
